Measurements taken from US20040023884A1, “Biologically active peptides from functional domains of bactericidal/permeability-increasing protein and uses thereof” (priority 1993, published 2004).
In brackets after ≈: the same amount, converted by molar mass. Square brackets hold non-standard residues; d marks the D form. Peptide text beside a SMILES is read from it. 1Nal = N[C@@H](Cc1cccc2ccccc12)C(=O)O

How the values were obtained:
[1] = test system: E. coli 0111:B4 (smooth) bacteria; assay: Radial diffusion bactericidal assay, E. coli 0111:B4; type: cell-based; conditions: radial diffusion; PROBIT analysis; E. coli O111:B4 (smooth)
RAW 264.7 cells = assay: LPS neutralization cellular proliferation assay, RAW 264.7 cells; type: cell-based, mouse
How it was run: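 Mouse RAW 264.7 cells were primed 24 h with 50U/mL mouse γ-interferon, then exposed about 15 h to E. coli O113 LPS in serum-free RPMI with or without BPI peptides at 25 ng/mL–50 μg/mL. Proliferation was quantified by [^3H]-thymidine uptake, 1 μCi/well, added at 5 h.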

[2] = 3H-heparin binding assay (affinity and capacity); conditions: for Heparin Capacity: heparin bound at saturation; for Kd: read-out: Heparin Affinity; for cpm ^3H-Heparin bound: 100 picomoles of each fragment per well, saturating 3H-heparin 20 μg/mL, mean of duplicate wells ± range
How it was run: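 Peptide fragments were bound to PVDF-membrane wells and incubated with 3H-heparin in blocking buffer for 1 h at 4 °C. After washing, bound radioactivity was quantified by liquid scintillation counting, with BSA background subtracted; rBPI23 served as positive control.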

Staphylococcus aureus = assay: Radial diffusion bactericidal assay, Staphylococcus aureus; type: cell-based; conditions: radial diffusion; PROBIT analysis; S. aureus
C. albicans = assay: Radial diffusion fungicidal assay, Candida albicans; type: cell-based; conditions: radial diffusion
[3] = test system: rough mutant E. coli J5 bacteria; assay: Radial diffusion bactericidal assay, E. coli J5; type: cell-based; conditions: radial diffusion; PROBIT analysis; E. coli J5 (rough)
How it was run: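 Wells received 5 or 10 μL of BPI fragment, pre-incubated 3 h at 37 °C. The underlayer agarose carried washed log-phase organisms at 4×10^6 CFU/mL.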

E. coli 0113 LPS = assay: Limulus Amoebocyte Lysate (LAL) inhibition assay; type: biochemical; conditions: for LAL (relative difference): alanine variant relative to BPI.2
Protocol: BPI proteolytic fragments produced according to Example 1 were subjected to a Limulus Amoebocyte Lysate (LAL) inhibition assay to determine LPS binding properties of these fragments. Specifically, each of the fragments were mixed in Eppendorf tubes with a fixed concentration of E. coli 0113 LPS (4 ng/mL final concentration) and incubated at 37° C. for 3 hours with occasional shaking. Addition controls comprising rBPI23 at 0.05 μg/mL were also tested. Following incubation, 360 μL of Dulbecco's phosphate buffered saline (D-PBS; Grand Island Biological Co. (GIBCO), Long Island, N.Y.) were added per tube to obtain an LPS concentration of 200 pg/mL for the LAL assay. Each sample was then transferred into Immulon II strips (Dynatech, Chantilly, Va.) in volumes of 50 μl per well.
Limulus amoebocyte Lysate (Quantitative Chromogenic LAL kit, Whitaker Bioproducts, Inc., Walkersville, Md.) was added at 50 μL per well and the wells were incubated at room temperature for 25 minutes. Chromogenic substrate was then added at a volume of 100 μL per well and was well mixed. After incubation for 20 to 30 minutes at room temperature, the reaction was stopped with addition of 100 μL of 25% (v/v) acetic acid. Optical density at 405 nm was then measured in a multiplate reader (Model Vmax, […], Menlo Park, Calif.) with the results shown in FIG. 2 in terms of percent inhibition of LPS. In this Figure, the filled circle represents rBPI23; the open circle represents Asp-N fragment A3; the x represents Asp-N fragment A2, the filled square represents Asp-N fragment A4; the filled triangle represents Asp-N fragment A1A2; the open square represents Asp-N fragment A6a; the small open triangle represents CNBr fragment C3; and the small filled square represents CNBr fragment C1/C5.

## CC[C@H](C)[C@H](N)C(=O)N[C@@H](CCCCN)C(=O)N[C@H](C(=O)N[C@@H](CO)C(=O)NCC(=O)N[C@@H](CCCCN)C(=O)N[C@@H](Cc1cccc2ccccc12)C(=O)N[C@@H](CCCCN)C(=O)N[C@@H](C)C(=O)N[C@@H](CCC(N)=O)C(=O)N[C@@H](Cc1ccccc1)C(=O)N[C@@H](CCCNC(=N)N)C(=O)N[C@@H](Cc1ccccc1)C(=O)N[C@@H](CC(C)C)C(=O)N[C@@H](CCCCN)C(=O)N[C@@H](CCCCN)C(=O)N[C@@H](CO)C(=O)N[C@@H](CCCCN)C(=O)N[C@H](C(=O)NCC(=O)N[C@@H](Cc1c[nH]c2ccccc12)C(=O)N[C@@H](CC(C)C)C(=O)N[C@H](C(=O)N[C@@H](CCC(N)=O)C(=O)N[C@@H](CC(C)C)C(=O)N[C@@H](Cc1ccccc1)C(=O)N[C@@H](Cc1c[nH]cn1)C(=O)N[C@@H](CCCCN)C(=O)N[C@@H](CCCCN)C(=O)O)[C@@H](C)CC)C(C)C)[C@@H](C)CC [BPI.93] (H-IKISGK[1Nal]KAQFRFLKKSKVGWLIQLFHKK-OH)
[1]
  pmol added to well to achieve a 30 mm^2 bactericidal zone, E. coli O111:B4: 10,118.98 pmol
RAW 264.7 cells
  EC50 (peptide concentration at which the growth inhibitory effect of LPS was reversed by 50%): 0.9 ± 0.25 µg/mL
  IC50 (peptide concentration at which RAW cell growth was inhibited by 50%): 9.7 ± 0.1 µg/mL (≈ 2.73 µM)
[2]
  Heparin Capacity: 291.5 ng
  Kd: 0.387 µM
Staphylococcus aureus
  pmol added to well to achieve a 30 mm^2 bactericidal zone, S. aureus: b (no detectable activity up to 5 μg/well)
C. albicans
  C. albicans: pmol required for 30 mm^2 zone: >980.27 pmol
[3]
  pmol added to well to achieve a 30 mm^2 bactericidal zone, E. coli J5: 212.87 pmol

## A1: Asp-N fragment of rBPI23, region 1-38 as printed in Table II (A1 A2 in Table I) (VNPGVVVRISQKGLDYASQQGTAALQKELKRIKIPDYS; Asp-N fragment; UniProt P17213 32-69, looked up, fragment)
E. coli 0113 LPS
  amount required to inhibit the LAL assay, fold higher than 116-193 fragment / rBPI23: 10 fold
[2]
  cpm ^3H-Heparin bound: 17,002 ± 479 cpm

## A4: Asp-N fragment of rBPI23, residues 57-104 (DIREFQLPSSQISMVPNVGLKFSISNANIKISGKWKAQKRFLKMSGNF; UniProt P17213 88-135, looked up, fragment)
E. coli 0113 LPS
  amount required to inhibit the LAL assay, fold higher than 116-193 fragment / rBPI23: 10 fold
[2]
  cpm ^3H-Heparin bound: 33,159 ± 1.095 cpm

## AKISGKWKAQKRFLK [BPI.15]
[1]
  pmol added to well to achieve a 30 mm^2 bactericidal zone, E. coli O111:B4: b (no detectable activity up to 5 μg/well)
E. coli 0113 LPS
  LAL (relative difference): = (no difference in the LAL assay)
[2]
  Heparin Capacity: 145.4 ng
  Kd: 0.315 µM
[3]
  pmol added to well to achieve a 30 mm^2 bactericidal zone, E. coli J5: 9,705.10 pmol

## IAISGKWKAQKRFLK [BPI.16]
[1]
  pmol added to well to achieve a 30 mm^2 bactericidal zone, E. coli O111:B4: b (no detectable activity up to 5 μg/well)
E. coli 0113 LPS
  LAL (relative difference): = (no difference in the LAL assay)
[2]
  Heparin Capacity: 127.25 ng
  Kd: 0.231 µM
[3]
  pmol added to well to achieve a 30 mm^2 bactericidal zone, E. coli J5: 7,550.90 pmol

## IKASGKWKAQKRFLK [BPI.17]
[1]
  pmol added to well to achieve a 30 mm^2 bactericidal zone, E. coli O111:B4: b (no detectable activity up to 5 μg/well)
E. coli 0113 LPS
  LAL / LPS inhibition activity (in words): moderate
  LAL (relative difference): ↓ (moderate)
[2]
  Heparin Capacity: 113.1 ng
  Kd: 0.267 µM
[3]
  pmol added to well to achieve a 30 mm^2 bactericidal zone, E. coli J5: 15,836.70 pmol

## IKIAGKWKAQKRFLK [BPI.18]
[1]
  pmol added to well to achieve a 30 mm^2 bactericidal zone, E. coli O111:B4: b (no detectable activity up to 5 μg/well)
E. coli 0113 LPS
  LAL (relative difference): = (no difference in the LAL assay)
[2]
  Heparin Capacity: 156.6 ng
  Kd: 0.381 µM
[3]
  pmol added to well to achieve a 30 mm^2 bactericidal zone, E. coli J5: 7,128.50 pmol
